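Step 1: Grow cells in 96-well plates. Step 2: Expose to compound for 48 hours at 5 concentrations. Step 3: Interpolate endpoints linearly; if unreached, use highest concentration. GI50 marks 50% less growth. The concentration for full growth arrest is given as TGI.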
How the values were obtained:
Assay in all cases: inhibition of tumour cell growth, NCI panel, 48 h
PC-3 prostate = test system: PC-3 prostate
HCT-116 colon = test system: HCT-116 colon
HOP-92 NSCLC = test system: HOP-92 NSCLC
SK-MEL-2 melanoma = test system: SK-MEL-2 melanoma
HT29 colon = test system: HT29 colon
IGROV1 ovarian = test system: IGROV1 ovarian
ACHN renal = test system: ACHN renal
UO-31 renal = test system: UO-31 renal
MDA-MB-231 breast = test system: MDA-MB-231 breast
KM12 colon = test system: KM12 colon
786-0 renal = test system: 786-0 renal
OVCAR-8 ovarian = test system: OVCAR-8 ovarian
A549 NSCLC = test system: A549 NSCLC
BT-549 breast = test system: BT-549 breast
SK-MEL-28 melanoma = test system: SK-MEL-28 melanoma
OVCAR-3 ovarian = test system: OVCAR-3 ovarian
NCI-H23 lung = test system: NCI-H23 lung
HOP-62 NSCLC = test system: HOP-62 NSCLC
SF-539 CNS = test system: SF-539 CNS
SN12C renal = test system: SN12C renal
SF-295 CNS = test system: SF-295 CNS
LOX IMVI melanoma = test system: LOX IMVI melanoma
HL-60(TB) leukemia = test system: HL-60(TB) leukemia
COLO 205 colon = test system: COLO 205 colon
OVCAR-4 ovarian = test system: OVCAR-4 ovarian
NCI-H226 lung = test system: NCI-H226 lung
MALME-3M melanoma = test system: MALME-3M melanoma
U251 CNS = test system: U251 CNS
SNB-19 CNS = test system: SNB-19 CNS
SF-268 CNS = test system: SF-268 CNS
TK-10 renal = test system: TK-10 renal
HCC-2998 colon = test system: HCC-2998 colon
RXF 393 renal = test system: RXF 393 renal
CAKI-1 renal = test system: CAKI-1 renal
OVCAR-5 ovarian = test system: OVCAR-5 ovarian
K-562 leukemia = test system: K-562 leukemia
HCT-15 colon = test system: HCT-15 colon
HS 578T breast = test system: HS 578T breast
UACC-257 melanoma = test system: UACC-257 melanoma
SNB-75 CNS = test system: SNB-75 CNS
RPMI-8226 leukemia = test system: RPMI-8226 leukemia
SK-OV-3 ovarian = test system: SK-OV-3 ovarian
UACC-62 melanoma = test system: UACC-62 melanoma
SK-MEL-5 melanoma = test system: SK-MEL-5 melanoma
NCI-H460 lung = test system: NCI-H460 lung
SW-620 colon = test system: SW-620 colon
DU-145 prostate = test system: DU-145 prostate
EKVX NSCLC = test system: EKVX NSCLC
MCF7 breast = test system: MCF7 breast
MDA-MB-435 = test system: MDA-MB-435
A498 renal = test system: A498 renal
CCRF-CEM leukemia = test system: CCRF-CEM leukemia
T-47D breast = test system: T-47D breast
NCI/ADR-RES ovarian = test system: NCI/ADR-RES ovarian
MOLT-4 leukemia = test system: MOLT-4 leukemia
M14 melanoma = test system: M14 melanoma
SR leukemia = test system: SR leukemia

Structure (SMILES): O=C(Nc1ccccc1)Nc1nc2ccc([N+](=O)[O-])cc2s1
- GI50 (PC-3 prostate): 1.69 µM
- TGI (PC-3 prostate): 9.89 µM
- GI50 (HCT-116 colon): 2.22 µM
- TGI (HCT-116 colon): 10.1 µM
- GI50 (HOP-92 NSCLC): 0.324 µM
- TGI (HOP-92 NSCLC): 2.61 µM
- GI50 (SK-MEL-2 melanoma): 1.69 µM
- TGI (SK-MEL-2 melanoma): 5.15 µM
- GI50 (HT29 colon): 3.46 µM
- TGI (HT29 colon): 12.1 µM
- GI50 (IGROV1 ovarian): 2.49 µM
- TGI (IGROV1 ovarian): 14.9 µM
- GI50 (ACHN renal): 2.04 µM
- TGI (ACHN renal): 10.2 µM
- GI50 (UO-31 renal): 1.56 µM
- TGI (UO-31 renal): 11.5 µM
- GI50 (MDA-MB-231 breast): 1.82 µM
- TGI (MDA-MB-231 breast): 4.56 µM
- GI50 (KM12 colon): 1.77 µM
- TGI (KM12 colon): 10.6 µM
- GI50 (786-0 renal): 2.41 µM
- TGI (786-0 renal): 9.94 µM
- GI50 (OVCAR-8 ovarian): 2.8 µM
- TGI (OVCAR-8 ovarian): 14.5 µM
- GI50 (A549 NSCLC): 2.53 µM
- TGI (A549 NSCLC): 14.4 µM
- GI50 (BT-549 breast): 2.02 µM
- TGI (BT-549 breast): 6.5 µM
- GI50 (SK-MEL-28 melanoma): 2.45 µM
- TGI (SK-MEL-28 melanoma): 12.1 µM
- GI50 (OVCAR-3 ovarian): 1.91 µM
- TGI (OVCAR-3 ovarian): 11.6 µM
- GI50 (NCI-H23 lung): 0.649 µM
- TGI (NCI-H23 lung): 3.57 µM
- GI50 (HOP-62 NSCLC): 2.93 µM
- TGI (HOP-62 NSCLC): 11.5 µM
- GI50 (SF-539 CNS): 2.12 µM
- TGI (SF-539 CNS): 10.4 µM
- GI50 (SN12C renal): 1.58 µM
- TGI (SN12C renal): 6.79 µM
- GI50 (SF-295 CNS): 1.23 µM
- TGI (SF-295 CNS): 3.11 µM
- GI50 (LOX IMVI melanoma): 1.22 µM
- TGI (LOX IMVI melanoma): 3.68 µM
- GI50 (HL-60(TB) leukemia): 1.46 µM
- TGI (HL-60(TB) leukemia): 3.57 µM
- GI50 (COLO 205 colon): 2.05 µM
- TGI (COLO 205 colon): 4.38 µM
- GI50 (OVCAR-4 ovarian): 1.31 µM
- TGI (OVCAR-4 ovarian): 12.4 µM
- GI50 (NCI-H226 lung): 1.37 µM
- TGI (NCI-H226 lung): 4.3 µM
- GI50 (MALME-3M melanoma): 0.751 µM
- TGI (MALME-3M melanoma): 7.71 µM
- GI50 (U251 CNS): 1.97 µM
- TGI (U251 CNS): 12.9 µM
- GI50 (SNB-19 CNS): 1.74 µM
- TGI (SNB-19 CNS): 12.9 µM
- GI50 (SF-268 CNS): 2.65 µM
- TGI (SF-268 CNS): 13.3 µM
- GI50 (TK-10 renal): 2.83 µM
- TGI (TK-10 renal): 10.7 µM
- GI50 (HCC-2998 colon): 1.38 µM
- TGI (HCC-2998 colon): 9.09 µM
- GI50 (RXF 393 renal): 0.548 µM
- TGI (RXF 393 renal): 3.02 µM
- GI50 (CAKI-1 renal): 1.62 µM
- TGI (CAKI-1 renal): 7.91 µM
- GI50 (OVCAR-5 ovarian): 4.33 µM
- TGI (OVCAR-5 ovarian): 17.4 µM
- GI50 (K-562 leukemia): 1.47 µM
- TGI (K-562 leukemia): 10.8 µM
- GI50 (HCT-15 colon): 1.65 µM
- TGI (HCT-15 colon): 10.5 µM
- GI50 (HS 578T breast): 2.72 µM
- TGI (HS 578T breast): 12.4 µM
- GI50 (UACC-257 melanoma): 1.49 µM
- TGI (UACC-257 melanoma): 7.7 µM
- GI50 (SNB-75 CNS): 1.87 µM
- TGI (SNB-75 CNS): 5.74 µM
- GI50 (RPMI-8226 leukemia): 0.69 µM
- TGI (RPMI-8226 leukemia): 3.47 µM
- GI50 (SK-OV-3 ovarian): 2.33 µM
- TGI (SK-OV-3 ovarian): 9.58 µM
- GI50 (UACC-62 melanoma): 0.86 µM
- TGI (UACC-62 melanoma): 8.13 µM
- GI50 (SK-MEL-5 melanoma): 0.471 µM
- TGI (SK-MEL-5 melanoma): 1.75 µM
- GI50 (NCI-H460 lung): 2.06 µM
- TGI (NCI-H460 lung): 10.5 µM
- GI50 (SW-620 colon): 2.97 µM
- TGI (SW-620 colon): 12.7 µM
- GI50 (DU-145 prostate): 3.33 µM
- TGI (DU-145 prostate): 16.7 µM
- GI50 (EKVX NSCLC): 1.95 µM
- TGI (EKVX NSCLC): 11.9 µM
- GI50 (MCF7 breast): 1.42 µM
- TGI (MCF7 breast): 10.8 µM
- GI50 (MDA-MB-435): 2.16 µM
- TGI (MDA-MB-435): 9.74 µM
- GI50 (A498 renal): 0.254 µM
- TGI (A498 renal): 1.71 µM
- GI50 (CCRF-CEM leukemia): 1.29 µM
- TGI (CCRF-CEM leukemia): 13.1 µM
- GI50 (T-47D breast): 0.533 µM
- TGI (T-47D breast): 9.77 µM
- GI50 (NCI/ADR-RES ovarian): 1.79 µM
- TGI (NCI/ADR-RES ovarian): 8.31 µM
- GI50 (MOLT-4 leukemia): 1.96 µM
- TGI (MOLT-4 leukemia): 7.14 µM
- GI50 (M14 melanoma): 2.64 µM
- TGI (M14 melanoma): 8.48 µM
- GI50 (SR leukemia): 0.746 µM
- TGI (SR leukemia): 4.17 µM
